For three compounds, EC50 results are on record in BindingDB's records for doi:10.1021/acs.jmedchem.8b00277 (2018).

A short description of the assay: Inhibition of HIV1 NL4-3 protease assessed as decrease in viral replication in human MT2 cells after 4 days by luciferase reporter gene assay.
Consider `COC(=O)N[C@H](C(=O)NN(Cc1ccc(-c2ccccn2)cc1)C[C@H](OC(=O)[C@@H](NC(=O)OC)C(C)(C)C)[C@H](Cc1ccccc1)NC(=O)OC(OC(=O)[C@@H](N)C(C)C)C(C)C)C(C)(C)C` (stereo partly drawn), for which the EC50 was 5.3 nM.
The same measure for `COC(=O)N[C@H](C(=O)NN(Cc1ccc(-c2ccccn2)cc1)C[C@H](OC(=O)[C@@H](NC(=O)OC)C(C)(C)C)[C@@H](N)Cc1ccccc1)C(C)(C)C`: 1.8 nM; for `COC(=O)N[C@H](C(=O)N[C@@H](Cc1ccccc1)[C@@H](O)CN(Cc1ccc(-c2ccccn2)cc1)NC(=O)[C@@H](NC(=O)OC)C(C)(C)C)C(C)(C)C` [CGP 73547]: 0.7 nM.
